Measurements published in US20200102349A1, “PEPTIDE REAGENTS AND METHODS FOR DETECTION AND TARGETING OF DYSPLASIA, EARLY CANCER AND CANCER” (THE REGENTS OF THE UNIVERSITY OF MICHIGAN, priority 2014, published 2020).
Where no end group is shown, it is not given here.

Key:
tumor xenograft = settings: systemic administration; cited from earlier work
HT29 cells [1] = test: Peptide binding to colorectal cancer cells on confocal microscopy (HT29); type: cell-based, human; settings: HT29, 5 μM, 3 min
Experimental: (§1) HT29, SW480, and SW620 cells (˜10^3) were grown on cover slips to ˜80% confluence. The cells were washed 1× with PBS and incubated with 5 μM of QRH*-Cy5.5 and PEH*-Cy5.5 for 3 min at RT. The cells were then washed 3× in PBS, fixed with 4% paraformaldehyde (PFA) for 5 min, washed 1× with PBS, and then mounted on glass slides with ProLong Gold reagent containing DAPI (Invitrogen). Confocal fluorescence images were collected with FITC, Cy5.5, and DAPI filters (Leica Inverted SPSX Confocal Microscope System) using a 63× oil-immersion objective. Fluorescence intensities from 5 cells in 2 independent images were quantified using custom Matlab (Mathworks) software.
(§2) We assessed binding of QRH*-Cy5.5 to a panel of colorectal cancer cells that vary in EGFR expression level on confocal microscopy. We observed binding of QRH*-Cy5.5 to the surface (arrows) of HT29, SW480, and SW620 cells with decreasing strength, FIG. 3A-C, scale bars 30 μm. […] Results are an average of 10 cells from 2 independent images. EGFR expression is shown on Western blot, FIG. 3H.

SW480 cells = test: Peptide binding to colorectal cancer cells on confocal microscopy (SW480); type: cell-based, human; settings: SW480, 5 μM, 3 min
Experimental: as §1, §2

SW620 cells = test: Peptide binding to colorectal cancer cells on confocal microscopy (SW620); type: cell-based, human; settings: SW620, 5 μM, 3 min
Experimental: as §1, §2

[2] = system: colonic dysplasia (flat lesions and polyps); test: In vivo NIR fluorescence endoscopy of colon in CPC;Apc mouse; settings: for mean (±SD) log of the T/B ratio: topical 100 μM, 5 min incubation
Experimental: For the in vivo fluorescence images of mouse colon, the T/B ratios for flat dysplasia and polyps were log-transformed to improve normality. The fold-change between classification pairs was estimated using the anti-log of the difference in the log-transformed data. Differences in results between the experimental and control peptides were evaluated on t-test. *P<0.05 was considered significant. Similar methods were used to evaluate the ex vivo fluorescence images of human colonic specimens. The results were plotted on a receiver-operator characteristic (ROC) curve. Co-localization of peptide and antibody binding was evaluated on Pearson's correlation coefficient. All analyses were performed using custom Matlab software (MathWorks Inc).
Mouse imaging studies were performed with approval of the University of Michigan Committee on the Use and Care of Animals (UCUCA). The mice were housed in pathogen-free conditions and supplied water ad libitum under controlled conditions of humidity (50±10%), light (12/12 hour light/dark cycle) and temperature (25° C.). Anesthesia was induced and maintained via a nose cone with inhaled isoflurane mixed with oxygen at a concentration of 2-4% at a flow rate of ˜0.5 L/min. The colon was first rinsed with tap water to remove mucous and debris. White light illumination was used first to identify anatomic landmarks, including polyps, mucosal folds, colonic segment, and distance of endoscope tip from anus, to register images with histology. The Cy5.5-labeled peptides were delivered at a concentration of 100 μM in a volume of 1.5 mL through the 3 Fr instrument channel. After 5 min for incubation, the colon was rinsed 3× with a tap water to remove the unbound peptides. After imaging was completed, the mice were euthanized. The colon was resected, and divided along the longitudinal axis. Flat lesions and polyps were identified on fluorescence, excised perpendicular to the mucosal surface, and processed for histology (H&E). We collected images from mice (n=5) that ranged in age from 7 to 10 months.
Imaging was performed using a small animal endoscope (Karl Storz Veterinary Endoscopy).^39 A xenon light source provides white light illumination via a fluid light cable. A diode-pumped solid state laser (TechnicaLaser Inc) provides excitation at λex=671 nm. The laser beam is expanded to a diameter of 3 mm to fill the aperture of the light cable. The laser power at the tip of the endoscope is <2 mW. The white light images reflect off a dichroic mirror (Semrock Inc, # FF685-Di02-25×36, λc=685 nm), and are focused by an achromatic doublet (Edmund Optics Inc, #32-323). They pass through a neutral density filter (OD 1), and are detected by a color camera (Point Grey Research, # GX-FW-28S5C-C). The fluorescence images pass through the dichroic and a band pass filter (Semrock Inc, # FF01-716/40-25, λC=716 nm, Δλ=40 nm), and are focused on a monochrome camera (Point Grey Research, # GX-FW-28S5M-C). All videos (1932×1452 resolution) are recorded at 15 frames per sec via a firewire connection.
White light and fluorescence videos were exported in avi format with 24 (RGB) and 8 (grayscale) bit digital resolution for the color and fluorescence images, respectively. […] Individual frames were exported using custom Matlab software. On the fluorescence images, 3 regions of interest (ROI, 25×25 pixels) were picked at random within the dysplastic lesion and within adjacent areas of normal-appearing mucosa. The mean intensities within these ROI's on the fluorescence images were measured. The target to-background (T/B) ratio for each image was determined by ratioing the mean intensities of these two ROIs.

EGFR [3] = molecular target: T1, EGFR (Homo sapiens, UniProt P00533); test: siRNA knockdown of EGFR in HT29 cells, confocal fluorescence microscopy; type: cell-based; design: endogenous in cells; host or cells: HT29 human colorectal adenocarcinoma cells (ATCC)
Experimental: as §1
We used siRNA to knockdown expression of EGFR in HT29 cells. We used ON-TARGETplus human EGFR siRNA and ON-TARGETplus non-targeting pool (Thermo Scientific) per manufacturer's protocol. 5 μL of siRNA at 5 μM/L concentration was transfected into HT29 cells using DharmaFECT (Thermo Scientific). QRH*-Cy5.5 and PEH*-Cy5.5 were incubated with HT29 siEGFR and siCL cells. The cells were fixed with either 4% PFA or methanol. A 1:1000 dilution of primary monoclonal mouse anti-EGFR antibody (Thermo Scientific, # MS-396, clone 199.12, IgG2a isotype) was incubated overnight at 4° C. Afterwards, the cells were washed 3× with PBS, and further incubated with 1:500 dilution of AF488-labeled secondary goat anti-mouse IgG antibody (Life Technologies, # A-11029) for 1 hour at RT, washed 3×, and then mounted on glass slides with ProLong Gold reagent containing DAPI (Invitrogen). Confocal fluorescence images were collected with FITC, Cy5.5, and DAPI filters using a 63× oil-immersion objective.
We validated specific binding of QRH*-Cy5.5 to EGFR on siRNA knockdown in HT29 cells. On confocal microscopy, QRH*-Cy5.5 (red), FIG. 2A, and AF488-labeled anti-EGFR (green), FIG. 2B, bind strongly to the surface (arrows) of control HT29 cells (transfected with siCL, non-targeting siRNA), scale bars 30 μm. […] The results (mean±std) for QRH*-Cy5.5, anti-EGFR AF488, and PEH*-Cy5.5 to control cells (siCL) were 7.8±1.7, 3.1±1.0, and 1.6±0.3 AU, respectively, and to EGFR knockdown cells (siEGFR) were 2.5±0.8, 1.0±0.4, and 1.9±0.7 AU, respectively, *P<0.01 by paired t-test, FIG. 2G. Results are an average of 10 cells from 2 images performed independently. EGFR expression is shown on Western blot, FIG. 12H.

HT29 cells [4] = test: Competition for peptide binding with unlabeled peptide; type: cell-based, human; settings: unlabeled peptide 0-500 μM, then 5 μM QRH*-Cy5.5, 4° C.
Experimental: Specific binding of QRH*-Cy5.5 to HT29 cells was validated on competitive inhibition with unlabeled QRH* peptide. A total of −10^3 HT29 cells were grown to −70% confluence on cover slips in triplicate. Unlabeled QRH* and PEH* peptide at 0, 50, 100, 150, 250, and 500 μM were added and incubated with the cells for 30 min at 4° C. The cells were washed and incubated with 5 μM of QRH*-Cy5.5 for another 30 min at 4° C. The cells were washed and fixed with 4% PFA for 5 min. The cells were washed with PBS and mounted with ProLong Gold reagent containing DAPI (Invitrogen). Fluorescence images were collected at each concentration using a 63× objective (Zeiss Axioskop 2 plus microscope), and intensities from 5 cells in 2 independent images were quantified using custom Matlab (Mathworks) software.

HT29 cells [5] = test: Apparent dissociation constant on flow cytometry; type: binding, human; settings: 4° C., 1 hour
Experimental: We measured the apparent dissociation constant of the peptide to HT29 cells as an assessment of binding affinity. QRH*-Cy5.5 was serially diluted in PBS at concentrations of 0, 10, 25, 50, 75, 100, 125, 150 and 200 nM. HT29 cells (˜10^5) were incubated with QRH*-Cy5.5 at 4° C. for 1 hour, washed with cold PBS, and the mean fluorescence intensities were measured on flow cytometry. The equilibrium dissociation constant kd=1/ka was calculated by performing a least squares fit of the data to the non-linear equation […]. I0 and Imax are the initial and maximum fluorescence intensities, corresponding to no peptide and at saturation, respectively, and [X] represents the concentration of the bound peptide [Thomas et al., Clin Exp Metastasis, 26:105-119 (2009)]. Origin 6.1 data analysis software (OriginLab Corp) was used to calculate kd.

HT29 cells [6] = test: Apparent association time constant on flow cytometry; type: binding, human
Experimental: We measured the apparent association time constant of the peptide to HT29 cells as an assessment of binding onset. HT29 cells were grown to […] confluence in 10 cm dishes, and detached with PBS-based cell dissociation buffer (Invitrogen). Cells (˜10^5) were incubated with 5 μM QRH*-Cy5.5 at 4° C. for various time intervals ranging from 0 to 20 min. The cells were centrifuged, washed with cold PBS, and fixed with 4% PFA. Flow cytometry analysis was performed as described above, and the median fluorescence intensity (y) was ratioed with that of HT29 cells without addition of peptide at different time points (t) using Flowjo software. The rate constant k was calculated by fitting the data to a first order kinetics model, y(t)=Imax[1−exp^(−kt)], where Imax=maximum value,^60 using Prism 5.0 software (GraphPad Inc).

[7] = system: OE21 human esophageal SCC cells; test: Binding of FITC-labeled peptide to esophageal SCC cells on confocal microscopy; type: cell-based
Experimental: We have further validated specific binding of the FITC-labeled peptide to EGFR on co-localization with anti-EGFR antibody. A total of ˜7.5×10^3 OE21 cells were grown to ˜70% confluence on cover slips and fixed with methanol for 5 min at ˜20° C. The cells were incubated for 2 hours at RT with 1:500 dilution of primary anti-EGFR mAb (199.12, Neomarkers). The cells were incubated with 1:500 dilution of secondary Cy5.5-labeled antibody for 1 hour at RT, and mounted with ProLong Gold with DAPI (Invitrogen). On confocal microscopy, we observe specific binding of Cy5.5-labeled anti-EGFR antibody (red) to the membrane (arrow) of OE21 cells, FIG. 8A. We then added the FITC-labeled peptide to the OE21 cells. After 10 min for incubation at 37° C., co-localization of the peptide (green) with the antibody (red) to the membrane (arrow) of OE21 cells can be observed, FIG. 8B.

EGFR [8] = molecular target: T1, EGFR; settings: read-out: binding affinity; cited from earlier work

Substance: CMYIEALDKYAC
- time of peak accumulation / binding activity in tumor xenograft after injection (tumor xenograft): 8 h

Substance: LARLLT
- time of peak accumulation / binding activity in tumor xenograft after injection (tumor xenograft): ~80 h

Substance: PEH*-Cy5.5: scrambled sequence PEHKRRQ (SEQ ID NO: 19) for control, Cy5.5-labeled (also: Cy5.5 label, site not given here) [reference compound]
- fluorescence intensity of binding (mean±std) (HT29 cells [1]): 1.7±0.4
- fluorescence intensity of binding (mean±std) (SW480 cells): 1.2±0.3
- fluorescence intensity of binding (mean±std) (SW620 cells): 0.8±0.3
- mean (±SD) log of the T/B ratio ([2]; flat lesions (n=15)): 0.108±0.143
- mean (±SD) log of the T/B ratio ([2]; polyps (n=15)): 0.186±0.233
- NIR fluorescence signal from polyp and flat lesions in vivo ([2]; topical, distal colon, 5 min): minimal signal
- fluorescence intensity (mean±std) (EGFR [3]; EGFR knockdown HT29 cells (siEGFR)): 1.9±0.7 AU
- fluorescence intensity (mean±std) (EGFR [3]; control HT29 cells (siCL, non-targeting siRNA)): 1.6±0.3 AU

Substance: PEH*: unlabeled PEH* (control) (PEHKRRQGGGSK) [reference compound]
- change of fluorescence intensity of QRH*-Cy5.5 binding on addition of unlabeled peptide (HT29 cells [4]): no change

Substance: QRH*: unlabeled QRH* peptide (QRHKPREGGGSK)
- change of fluorescence intensity of QRH*-Cy5.5 binding on addition of unlabeled peptide (HT29 cells [4]): decrease in a concentration dependent manner

Substance: QRHKPRE
- Kd (HT29 cells [5]): 50 nM
- binding time scale (onset) (HT29 cells [6]): < 2.5 min
- apparent association time constant k (HT29 cells [6]; 5 μM, 4° C., flow cytometry): 0.406 min⁻¹

Substance: SHR*-FITC: FITC labeled SHRNRPRNTQPS (SHR*) (SEQ ID NO: 21) peptide (also: FITC label, site not given here)
- binding on confocal fluorescence microscopy [7]: significantly increased fluorescence intensity
- co-localization with Cy5.5-labeled anti-EGFR antibody ([7]; 10 min, 37° C.): co-localization

Substance: YHWYGYTPQNVI
- Kd (EGFR [8]): 22 nM
- time of peak accumulation / binding activity in tumor xenograft after injection (tumor xenograft): 4 h
